# Source: the RepoRT retention time repository
# Assay: HILIC, Waters ACQUITY UPLC BEH Amide, 100 × 2.1 mm, 1.7 µm; A: water + 0.125% formic acid + 10 mM ammonium formate; B: 5% water + 95% acetonitrile + 0.125% formic acid + 10 mM ammonium formate; gradient (min/%B) 0/100 2/100 7.7/70 9.5/40 10.25/30 12.75/100 17/100
# Conditions: stereoisomer not certain
row,SMILES,LC retention time
1,OCC1OC(OC2C(O)OC(CO)C(O)C2O)C(O)C(O)C1O (stereo not drawn) [2-alpha-Mannobiose],9.47 min
2,CC(=O)NCCCCCCNC(C)=O,1.5 min
3,"NC(Cc1ccc(O)c(O)c1)C(=O)O (stereo not drawn) [3,4-Dihydroxyphenylalanine]",8.31 min
4,Nc1ncnc2c1ncn2C1OC(CO)C(O)C1O (stereo not drawn) [Adenosine],4.77 min
5,Cn1c[n+](C2OC(CO)C(O)C2O)c2nc(N)[nH]c(=O)c21 (stereo not drawn) [7-Methylguanosine],7.34 min
6,Cc1cc(=O)oc2cc(O)ccc12 [4-Methylumbelliferone],1.22 min
7,Nc1ncnc2c1ncn2C1CC(O)C(COP(=O)(O)O)O1 (stereo not drawn) [2'-Deoxyadenosine-5'-monophosphate],8.63 min
8,CN(C)c1ccc(N=Nc2ccccc2)cc1 [p-(Dimethylamino)azobenzene [methyl yellow]],0.93 min
9,Cn1cnc2c(ncn2C2OC(CO)C(O)C2O)c1=N (stereo not drawn) [1-Methyladenosine],7.46 min
10,CCN1CC(CCN2CCOCC2)C(c2ccccc2)(c2ccccc2)C1=O (stereo not drawn) [Doxapram],1.64 min
11,O=C(C=Cc1ccc(O)c(O)c1)OC1CC(O)(C(=O)O)CC(O)C1O (stereo not drawn) [Chlorogenic acid],6.68 min
12,CN(C)CCCSc1ccccc1NC(=O)C=Cc1ccccc1 [Cinanserin],2.61 min
13,O=c1ccn(C2CC(O)C(COP(=O)(O)O)O2)c(=O)[nH]1 (stereo not drawn) [Deoxyuridine monophosphate],8.25 min
14,COc1ccc2[nH]cc(CC(=O)O)c2c1 [5-Methoxy-3-indoleacetic acid],1.32 min
15,NC(CS)C(=O)O (stereo not drawn) [Cysteine],5.31 min
16,CCOC(=O)c1ncn2c1CN(C)C(=O)c1cc(F)ccc1-2 [Flumazenil],1.08 min
17,Nc1ncnc2c1ncn2C1OC(CO)CC1O (stereo not drawn) [Cordycepin],3.54 min
18,CSCCCN [3-Methylthiopropylamine],5.16 min
19,Cc1cn(C2CC(O)C(COP(=O)(O)O)O2)c(=O)[nH]c1=O (stereo not drawn),8.28 min
20,CN1C(=O)CCC1c1ccc[n+]([O-])c1 [(S)-Cotinine N-oxide],3.87 min
21,CC(N)C(=O)NC(CCC(N)=O)C(=O)O (stereo not drawn) [Ala-Gln],9.11 min
22,O=C(O)Cc1c[nH]c2ccc(O)cc12 [5-Hydroxy-3-indoleacetic acid],1.78 min
23,COc1ccc(CC(C)NCC(O)c2ccc(O)c(NC=O)c2)cc1 (stereo not drawn) [Formoterol],5.18 min
24,O=C1CN=C(c2ccccn2)c2cc(Br)ccc2N1 [Bromazepam],1.3 min
25,CC(=O)CCCCn1c(=O)c2c(ncn2C)n(C)c1=O [Pentoxifylline],1.09 min

row,SMILES,LC retention time
1,CC12CCC(=O)C=C1CCC1C2C(O)CC2(C)C(C(=O)CO)CCC12 (stereo not drawn) [Corticosterone],1.25 min
2,CN(C)CCC=C1c2ccccc2COc2ccccc21 [Doxepin],2.26 min
3,CC(C)C(O)C(=O)O (stereo not drawn) [2-Hydroxy-3-methylbutyric acid],1.29 min
4,CCCCCC(O)C=CC=O (stereo not drawn) [4-Hydroxynonenal],1.07 min
5,"O=C1CCCC(=O)C1 [1,3 Cyclohexanedione]",1.47 min
6,NC(CS(=O)(=O)O)C(=O)O (stereo not drawn) [Cysteic acid],8.92 min
7,CC(C)NCC(O)COc1ccc(CCOCC2CC2)cc1 (stereo not drawn) [Betaxolol],3.05 min
8,CCC(COC(=O)c1cc(OC)c(OC)c(OC)c1)(c1ccccc1)N(C)C (stereo not drawn) [Trimebutine],1.47 min
9,CC1C(=O)Nc2ccccc21 (stereo not drawn) [3-Methyloxyindole],1.07 min
10,CNCCC(Oc1cccc2ccccc12)c1cccs1 (stereo not drawn) [Duloxetine],2.6 min
11,NC(=O)Cc1ccccc1 [2-Phenylacetamide],1.26 min
12,"OCC1OCC(O)C(O)C1O (stereo not drawn) [1,5-Anhydrosorbitol]",0.92 min
13,CC(Cc1ccc(C(C)C(=O)O)cc1)C(=O)O (stereo not drawn) [Carboxyibuprofen],1.11 min
14,CC(C)C12OC1C1OC13C1(C)CCC4=C(COC4=O)C1CC1OC13C2O (stereo not drawn) [Triptolide],1.02 min
15,CC(C)C(C)C=CC(C)C1CCC2C3=CC=C4CC(O)CCC4(C)C3CCC21C (stereo not drawn) [Ergosterol],1.43 min
16,Cc1cn(C2OC(CO)CC2O)c(=O)[nH]c1=O (stereo not drawn) [5-Methyl-3-deoxyuridine],2.6 min
17,O=c1ncc(F)c[nH]1 [5-Fluro-2-pyrimidone],1.77 min
18,CC(N)C(O)c1ccccc1 (stereo not drawn) [Phenylpropanolamine],5.29 min
19,CC(C)CC(NC(=O)C(O)C(N)Cc1ccccc1)C(=O)O (stereo not drawn) [Bestatin],5.98 min
20,"CC12CCC3c4ccc(O)cc4CCC3C1CCC2=O (stereo not drawn) [1,3,5(10)-Estratrien-3-ol-17-one]",1.01 min
21,COc1cc(C=CC=O)ccc1O [Coniferylaldehyde],1.14 min
22,Oc1ccc(C2CNCCc3c2cc(O)c(O)c3Cl)cc1 (stereo not drawn) [Fenoldopam],5.68 min
23,CN1CCC23c4c5ccc(O)c4OC2C(=O)CCC3(O)C1C5 (stereo not drawn) [Oxymorphone],5.5 min
24,NCCc1c[nH]c2ccc(O)cc12 [Serotonin],1.44 min
25,NC(N)=NCCCC(=O)O [4-Guanidinobutyric acid],7.72 min

# Other lines, results leading:
row,LC retention time,SMILES
1,4.01 min,O=C(O)CNC(=O)c1ccco1 [N-(2-Furoyl)glycine]
2,1.04 min,CCS(=O)(=O)CCn1c([N+](=O)[O-])cnc1C [Tinidazole]
3,8.6 min,O=C(O)C1CC(O)CN1C(=O)C1CCCN1 (stereo not drawn) [Proline-hydroxyproline]
4,1.17 min,Cc1ncc([N+](=O)[O-])n1CCO [Metronidazole]
5,1.02 min,CC(=O)OCCc1ccccc1 [Phenethylacetate]
6,8.06 min,NC(CCOC(=O)CCC(=O)O)C(=O)O (stereo not drawn) [O-Succinylhomoserine]
7,2.11 min,CCN1CCCC1CNC(=O)c1c(O)c(Cl)cc(Cl)c1OC (stereo not drawn) [Raclopride]
8,1.24 min,CN(CCOc1ccc(CC2SC(=O)NC2=O)cc1)c1ccccn1 (stereo not drawn) [Rosigltazone]
9,4.12 min,CN1C2CCCC1CC(NC(=O)c1nn(C)c3ccccc13)C2 (stereo not drawn) [Granisetron]
10,4.97 min,Cc1cccc(C)c1NC(=O)C(C)N (stereo not drawn) [Tocainide]
11,5.7 min,CCCNC1CCc2nc(N)sc2C1 (stereo not drawn) [Pramipexole]
12,2.85 min,CC(C)(C)NC(=O)C1CC2CCCCC2CN1CC(O)C(Cc1ccccc1)NC(=O)C(CC(N)=O)NC(=O)c1ccc2ccccc2n1 (stereo not drawn) [Saquinavir]
13,4.28 min,CC1(C)SC2C(N=CN3CCCCCC3)C(=O)N2C1C(=O)O (stereo not drawn) [Mecillinam]
14,0.95 min,COC(=O)C1=C(C)NC(C)=C(C(=O)OC(C)C)C1c1cccc2nonc12 (stereo not drawn) [Isradipine]
15,7.61 min,NC(Cc1ccc(O)cc1)C(=O)O (stereo not drawn) [Tyrosine]
16,7.83 min,O=C(O)C1CCCCN1 (stereo not drawn) [Pipecolic acid]
17,1.12 min,CC1CC2C3CC(F)C4=CC(=O)C(Cl)=CC4(C)C3(F)C(O)CC2(C)C1(O)C(=O)CO (stereo not drawn) [Halometasone]
18,3.81 min,CN1C2CCC1CC(OC(=O)c1c[nH]c3ccccc13)C2 (stereo not drawn) [Tropisetron]
19,6.92 min,O=C(O)C1CSCN1 (stereo not drawn) [Thiazolidine-4-carboxylic acid]
20,3.86 min,Nc1c2c(nc3ccccc13)CCCC2 [Tacrine]
21,10.1 min,NC1C(O)OC(COP(=O)(O)O)C(O)C1O (stereo not drawn) [Glucosamine-6-phosphate]
22,4.19 min,COc1cc(C)c(Cc2cnc(N)nc2N)cc1OC [Ormetroprim]

row,LC retention time,SMILES
1,1.33 min,CN(CC=CC#CC(C)(C)C)Cc1cccc2ccccc12 [Terbinafine]
2,2.54 min,OCCOCCN1CCN(C2=Nc3ccccc3Sc3ccccc32)CC1 [Quetiapine]
3,4.83 min,CC(=O)NC(C)C(=O)O (stereo not drawn) [N-Acetylalanine]
4,2.29 min,CC(=O)NC(CC(C)C)C(=O)O (stereo not drawn) [N-Acetylleucine]
5,3.21 min,Cn1c(NCCN(CCO)CCCc2ccc([N+](=O)[O-])cc2)cc(=O)n(C)c1=O [Nifekalant]
6,2.65 min,CC(Oc1c(Cl)cccc1Cl)C1=NCCN1 (stereo not drawn) [Lofexidine]
7,8.29 min,NCCc1cnc[nH]1 [Histamine]
8,1.16 min,CCCCC1=NC2(CCCC2)C(=O)N1Cc1ccc(-c2ccccc2-c2nn[nH]n2)cc1 [Irbesartan]
9,6.01 min,CN(CCO)CC(O)Cn1cnc2c1c(=O)n(C)c(=O)n2C (stereo not drawn) [Xanthinol]
10,1.88 min,CCc1nn(CCCN2CCN(c3cccc(Cl)c3)CC2)c(=O)n1CCOc1ccccc1 [Nefazodone]
11,7.7 min,Cc1ncc(COP(=O)(O)O)c(C=O)c1O [Pyridoxal-5-phosphate]
12,2.38 min,O=c1n(CCCN2CCN(c3cccc(Cl)c3)CC2)nc2ccccn12 [Trazodone]
13,1.24 min,COc1ccc2[nH]cc(CCNC(C)=O)c2c1 [Melatonin]
14,1.16 min,COc1cc2ccc(=O)oc2cc1O [Scopoletin]
15,1.48 min,CC(C)=CCNc1ncnc2c1ncn2C1OC(CO)C(O)C1O (stereo not drawn) [N6-Isopentenyladenosine]
16,1.29 min,"CN(C)C=O [N,N-Dimethylformamide]"
17,1.69 min,CCCCC(=O)N(Cc1ccc(-c2ccccc2-c2nn[nH]n2)cc1)C(C(=O)O)C(C)C (stereo not drawn) [Valsartan]
18,2.94 min,CCN(CC)CC1CCCCN1CC(=O)N1c2ccccc2C(=O)Nc2cccnc21 (stereo not drawn) [Otenzepad]
19,6.99 min,CCCCC(N)C(=O)O (stereo not drawn) [Norleucine]
20,0.92 min,C=C(C)C1CC=C(C)CC1 (stereo not drawn) [Limonene]
21,1.8 min,CCC(C)C(=O)OC1CC(O)C=C2C=CC(C)C(CCC(O)CC(O)CC(=O)O)C21 (stereo not drawn) [Pravastatin]
